The values below come from patent US20070191288A1, “Treatments for Benign Tumors, Cancers, Neoplasias, and/or Other Inflammatory Disorders or Diseases” (priority 2002, published 2007).

Test [1] has as its system lipoma. The experiment in a line: Effects of topiramate on lipoma in a dog. The class given is in vivo. The settings on record: 12-year-old female German Shorthaired Pointer (30.8 kg), large lipoma on right rib cage; topiramate 25 mg/day once per day, 59 days versus 24 days. The protocol:
FIG. 1A, depicts the size of a lipoma on a dog treated with topiramate for 24 days. FIG. 1B illustrates the reduction in lipoma size on the dog after topiramate had been administered for 59 days (25 mg/day administered once per day).

For test [2], the system named is simple and complex partial seizures and secondarily generalized seizures. The settings on record: clinical trials of human epilepsy; adjunctive therapy or monotherapy; cited from earlier work.

`CC1(C)O[C@@H]2[C@@H](CO[C@@]3(COS(N)(=O)=O)OC(C)(C)O[C@@H]23)O1` [topiramate, 2,3:4,5-bis-O-(1-methylethylidene)-β-D-fructopyranose sulfamate]: the “reduction in lipoma size/mass” value in test [1] is listed as “shrunk considerably”. Besides, the “efficacy in treating simple and complex partial seizures and secondarily generalized seizures” value in test [2] was “effective”.
